What was measured:
IMR-90 = test: MMP-1 expression in lung fibroblast cell line IMR-90, Western blot; assay type: cell-based, human; conditions: IMR-90, 12.5 μg/ml to 150 μg/ml, 48 hours
Method: (§1) The squamous cell carcinoma (UMSCC) cell line derived from patients with head and neck cancer (ATCC™, Manassas, Va.) were maintained in RPMI-1640 medium with 10% FBS. The Human keratinocyte cell line HACAT (ATCC) and the carcinomic human alveolar basal epithelial cell line A549 (ATCC™) were cultured in DMEM with 10% FBS. The diploid lung fibroblasts IMR-90 (ATCC™) were maintained in Minimum Essential Medium (MEM, Invitrogen™) with 10% FBS.
(§2) Similarly, other cells such as synoviocytes, IMR-90, keratinocytes, UMSCC and A549 were treated with kynurenine at concentrations of 12.5 to 150 μg/ml in appropriate media for each cell type as described above for 48 hours. Cells were then harvested for western blot analysis.
(§3) Cells were harvested by Trypsin/EDTA and lysed with cell lysis buffer containing 50 mM Tris-HCl (pH7.40), 150 mM NaCl, 10 mM EDTA, 5 mM EGTA, 1% TritonX-100™, 0.5% Igepal CA-630, 0.025% NaN3 and protease inhibitor cocktail (Sigma™). Cell debris was removed by centrifugation at 20,000×g for 10 minutes. The protein concentration in supernatant was determined using the MicroBCA™ method (Pierce™, Rockford, Ill.). Proteins in supernatant were mixed with protein sample loading buffer (final concentration: 60 mM Tris-HCl (pH 6.80), 2% SDS, 10% glycerol, 1.5% β-mercaptoethanol, 0.002% bromophenol blue) and size fractioned by 10% of SDS-polyacrylamide gel. […]

A549 = test: MMP-1 expression in lung epithelial carcinoma cell line A549, Western blot; assay type: cell-based, human; conditions: A549, 12.5 to 150 μg/ml, 48 hours
Method: as §1, §2, §3

ERK1/2 [1] = test: Human phospho-kinase array in dermal fibroblasts; assay type: cell-based; conditions: 100 μg/ml, after 1 hour of treatment
Method: Protein phosphorylation was evaluated using the Human Phospho-Kinase Array™ (R&D System™) according to the manufacturer's instructions. Briefly, capture and control antibodies were spotted in duplicate on nitrocellulose membranes (total 46 kinase phosphorylation sites). Cell lysates (300 μg of total protein per array) were incubated with array overnight. The array was washed to remove unbound proteins, followed by incubation with the cocktail of biotinylated detection antibodies. After incubation with streptavidin-HPR for 30 minutes, signals were visualized by ECL detection system (Santa Cruz™). Blots were analyzed by densitometry, and protein Phosphorylation was Normalized to a Positive Control which was Represented in Each Membrane.

ERK1/2 [2] = test: ERK1/2 phosphorylation in dermal fibroblasts, Western blot; assay type: cell-based, human; conditions: 100 μg/ml
Method: as §3, with “gel. After proteins were transferred onto nitrocellulose membrane by iBlot™ (Invitrogen Life Technologies™), non-specific binding were blocked with phosphate buffer saline twenty 20 (PBS-T) containing 5% skim milk for 1 hour. The membrane was then incubated with primary antibody overnight. After incubation with a secondary antibody for 1 hour, protein bands were visualized by an enhanced chemiluminescence (ECL™) detection system (Santa Cruz Biotechnology™, Santa Cruz, Calif.).” for “gel.”

MEK = MEK phosphorylation in dermal fibroblasts, Western blot; assay type: cell-based, human; conditions: 100 μg/ml
Method: as §3, with “gel. After proteins were transferred onto nitrocellulose membrane by iBlot™ (Invitrogen Life Technologies™), non-specific binding were blocked with phosphate buffer saline twenty 20 (PBS-T) containing 5% skim milk for 1 hour. The membrane was then incubated with primary antibody overnight. After incubation with a secondary antibody for 1 hour, protein bands were visualized by an enhanced chemiluminescence (ECL™) detection system (Santa Cruz Biotechnology™, Santa Cruz, Calif.).” for “gel.”

type 1 procollagen = test: Type 1 procollagen expression in dermal fibroblasts, Western blot; assay type: cell-based, human; conditions: 25-150 μg/ml, 48 hours
Method: Cell debris was removed by centrifugation at 20,000×g for 10 minutes. The protein concentration in supernatant was determined using the MicroBCA™ method (Pierce™, Rockford, Ill.). Proteins in supernatant were mixed with protein sample loading buffer (final concentration: 60 mM Tris-HCl (pH 6.80), 2% SDS, 10% glycerol, 1.5% β-mercaptoethanol, 0.002% bromophenol blue) and size fractioned by 10% of SDS-polyacrylamide gel. After proteins were transferred onto nitrocellulose membrane by iBlot™ (Invitrogen Life Technologies™), non-specific binding were blocked with phosphate buffer saline twenty 20 (PBS-T) containing 5% skim milk for 1 hour. The membrane was then incubated with primary antibody overnight. After incubation with a secondary antibody for 1 hour, protein bands were visualized by an enhanced chemiluminescence (ECL™) detection system (Santa Cruz Biotechnology™, Santa Cruz, Calif.). […] The secondary antibodies were either goat anti-mouse IgG (H+L) HPR conjugate or goat anti-rabbit IgG (H+L) HPR conjugate (Bio-rad Laboratory™ (Mississauga, ON, Canada). Secondary antibodies were used at a concentration of 1:3000.

human dermal fibroblasts = test: MTT proliferation assay of human dermal fibroblasts; assay type: cell-based; conditions: up to 150 μg/ml, 48 hours
Method: The effect of kynurenine on human dermal fibroblast proliferation was detected by MTT [3-(4,5-Dimethylthiazol-2-yl)-2,5-diphenyltetrazolium bromide] assay. In brief, 10,000 cells were seeded on a 24 well-plate and incubated with different concentrations of kynurenine for 48 hours. Media were removed and 0.2 ml of MTT (5 mg/ml in DMEM containing 2% FBS) was added. Cells were incubated with MIT for 4 hours. After washing 3 times with PBS, 0.2 ml of DMSO was added to dissolve the crystals. Absorbance was measured at 570 nm.

fibronectin = test: Fibronectin mRNA in human dermal fibroblasts, real-time PCR; assay type: cell-based; conditions: various concentration
splenocytes = test: ConA-induced splenocyte proliferation; assay type: cell-based; conditions: 100 and 150 μg/ml

Nc1ccccc1C(=O)CC(N)C(=O)O (racemic) [kynurenine]
MMP-1 expression (IMR-90): up-regulated | MMP-1 expression versus untreated controls (A549): did not significantly differ | ERK1/2 activation (phospho-kinase array) (ERK1/2 [1]): activated | time of peak ERK1/2 activation (ERK1/2 [2]): 8 h | ERK1/2 phosphorylation (ERK1/2 [2]; different times): phosphorylated | time of peak MEK activation (MEK): 8 h | MEK phosphorylation (MEK; different times): detection of the ERK1/2 upstream signal molecule MEK phosphorylation | expression of type 1 procollagen (type 1 procollagen): remarkably decreases | fibroblast proliferation (MTT) (human dermal fibroblasts): no significant effect | fibronectin expression (mRNA) (fibronectin): capable of down-regulating | reduction in conA-induced splenocyte proliferation (splenocytes; after 48 hours): about 2 fold | reduction in conA-induced splenocyte proliferation (splenocytes; after 96 hours): ~5 fold
